Measurements reported in ChEMBL document CHEMBL3797127, “Design, synthesis and evaluation of pyrrolo[2,3-d]pyrimidine-phenylamide hybrids as potent Janus kinase 2 inhibitors” (Bioorg Med Chem Lett, 2016).
Blank lines part the entries; values can stand above or below the molecule they belong to.

Experiments:
[1] = molecular target: T1, Tyrosine-protein kinase JAK3 (Homo sapiens, UniProt P52333)
T1 sequence (P52333 whole entry): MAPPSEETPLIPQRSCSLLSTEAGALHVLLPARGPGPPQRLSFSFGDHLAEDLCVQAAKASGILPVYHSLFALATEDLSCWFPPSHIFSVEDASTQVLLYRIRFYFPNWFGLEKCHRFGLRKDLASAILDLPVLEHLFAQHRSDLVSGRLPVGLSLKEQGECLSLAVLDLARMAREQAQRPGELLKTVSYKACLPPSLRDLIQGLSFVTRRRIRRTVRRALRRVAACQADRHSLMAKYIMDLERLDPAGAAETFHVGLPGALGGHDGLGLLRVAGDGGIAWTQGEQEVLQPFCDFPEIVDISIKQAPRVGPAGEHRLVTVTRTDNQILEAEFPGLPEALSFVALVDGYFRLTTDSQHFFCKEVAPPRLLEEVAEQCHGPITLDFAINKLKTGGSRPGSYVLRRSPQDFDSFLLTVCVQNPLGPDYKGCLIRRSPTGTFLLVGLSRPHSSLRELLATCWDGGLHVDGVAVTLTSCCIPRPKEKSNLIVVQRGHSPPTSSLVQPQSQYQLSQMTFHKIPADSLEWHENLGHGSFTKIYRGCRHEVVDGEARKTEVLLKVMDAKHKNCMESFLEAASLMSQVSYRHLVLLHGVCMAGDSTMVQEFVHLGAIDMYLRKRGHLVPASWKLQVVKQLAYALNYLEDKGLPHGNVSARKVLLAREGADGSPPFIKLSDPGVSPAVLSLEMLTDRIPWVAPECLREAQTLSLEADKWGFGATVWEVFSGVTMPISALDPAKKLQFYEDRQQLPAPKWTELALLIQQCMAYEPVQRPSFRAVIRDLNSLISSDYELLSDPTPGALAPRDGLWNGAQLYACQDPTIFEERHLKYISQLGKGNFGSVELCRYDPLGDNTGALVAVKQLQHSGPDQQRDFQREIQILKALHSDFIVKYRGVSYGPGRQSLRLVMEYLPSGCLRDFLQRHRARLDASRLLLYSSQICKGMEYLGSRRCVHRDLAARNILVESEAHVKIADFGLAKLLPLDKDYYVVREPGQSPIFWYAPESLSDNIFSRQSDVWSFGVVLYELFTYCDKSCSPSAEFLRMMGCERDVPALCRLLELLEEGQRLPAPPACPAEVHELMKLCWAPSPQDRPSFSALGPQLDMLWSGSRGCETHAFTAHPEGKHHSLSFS
Description: Inhibition of recombinant human GST-tagged JAK3 expressed in baculovirus expression system using Z'-LYTE Try6 peptide as substrate incubated for 1 hr by Z'-LYTE assay

[2] = in vivo; conditions: Sprague-Dawley, rat, iv, 4 mg/kg
[3] = in vivo; conditions: Sprague-Dawley, rat, iv, 4 mg/kg; remark: listed apart in the source
[4] = in vivo; conditions: Sprague-Dawley, rat, iv, 4 mg/kg; remark: listed apart in the source
[5] = in vivo; conditions: Sprague-Dawley, rat, iv, 4 mg/kg; remark: listed apart in the source
[6] = in vivo; conditions: Sprague-Dawley, rat, iv, 4 mg/kg; remark: listed apart in the source
Description: Half life in Sprague-Dawley rat at 4 mg/kg, iv administered as bolus dose

[7] = in vivo; conditions: Sprague-Dawley, rat, po, 10 mg/kg
[8] = in vivo; conditions: Sprague-Dawley, rat, po, 10 mg/kg; remark: listed apart in the source
[9] = in vivo; conditions: Sprague-Dawley, rat, po, 10 mg/kg; remark: listed apart in the source
[10] = in vivo; conditions: Sprague-Dawley, rat, po, 10 mg/kg; remark: listed apart in the source
Description: Half life in Sprague-Dawley rat at 10 mg/kg, po administered through gavage

[11] = in vivo; conditions: Sprague-Dawley, rat, po, 10 mg/kg; remark: listed apart in the source

IC50 [1]: 716 nM
Compound: Cn1c(C(=O)NCCN2CCCC2)cc2c(-c3ccc(NC(=O)[C@@H]4CCCN4C(=O)OC(C)(C)C)cc3)ncnc21

IC50 [1]: 584 nM
AUC(0-t) at 24 h [2]: 19700 ng·h/mL
clearance [3]: 3.3 mL/min/kg
Vd [4]: 0.612 L/kg
Cmax [5]: 9730 ng/mL
half-life [6]: 2.09 h
AUC(0-t) at 24 h [7]: 36300 ng·h/mL
Cmax [8]: 6140 ng/mL
Tmax [9]: 4 h
half-life [10]: 2.32 h
bioavailability [11]: 73.6%
Compound: Cn1c(C(=O)NCCCN2CCOCC2)cc2c(-c3ccc(NC(=O)C(C)(C)C)cc3)ncnc21

IC50 [1]: 507 nM
Compound: Cn1c(C(=O)NCCCN2CCOCC2)cc2c(-c3ccc(NC(=O)[C@@H]4CCCN4C(=O)OC(C)(C)C)cc3)ncnc21

IC50 [1]: 953 nM
Compound: Cn1c(C(=O)NCCN2CCCC2)cc2c(-c3ccc(NC(=O)C(C)(C)C)cc3)ncnc21
